Marks after values point to notes of the source that are not given here.
Legend:
guaifenesin bitterness = details: 200 ppm (0.2 mg/ml) HED against 13 mg/ml guaifenesin; cited from earlier work
HGT-1 cells = assay: guaifenesin-induced acid (proton) secretion in HGT-1 cells; format: cell-based, human; details: for proton secretory activity (log2 transformed ratio of treated vs. untreated cells): mean ± SEM
Source text: Human gastric tumour cell line 1 (HGT-1; Laboisse C. L.; Augeron C.; Couturier-Turpin M. H.; Gespach C.; Cheret A. M.; Potet F., Characterization of a newly established human gastric cancer cell line HGT-1 bearing histamine H2-receptors, Canc. Res., 1982, 42, 1541 to 1548) is a suitable screening tool for detecting the interaction of bitter agents and bitter modulating substances (Liszt, K. I.; Hans, J.; Ley, J. P.; Kock, E.; Somoza, V., Characterization of bitter compounds via modulation of proton secretion in human gastric parietal cells in culture, J. Agric. Food Chem., 2018, 66 (10), 2295-2300.). Therefore, the effect of eriodictyol on guaifenesin-induced acid secretion in the HGT-1 cell line was determined to predict the modulation of guaifenesin-induced bitterness by eriodictyol. To this aim, HGT-1 cells were cultured under standard conditions and passaged at ca. 80% confluence. […] HGT-1 cells were pre-loaded with (acetyloxy) methyl-3-(acetyloxy)-10-(dimethylamino)-3′-oxo-spiro[7H-benzo [c]xanthene-7,1′(3H)-isobenzofuran]-ar′-carboxylate and incubated in 130 mM NaCl 130, 4.7 mM KCl, 1.3 mM CaCl2, 1.2 mM MgSO4, 1.2 mM KH2PO4, 11.7 mM glucose, 10 mM HEPES 10, 20 μM 4,4′-Diisothiocyanatostilbene-2,2′-disulfonic acid disodium and 20 μM 5-(N-Ethyl-N-isopropyl) amiloride at pH 7.4. Fluorescence recordings were performed with an excitation wavelength of 488 nm and monitoring the emission wavelengths of 580 nm and 640 nm, respectively, each with a 20 nm bandwidth. […]
(§1) The data in Table 1 are presented as mean±SEM derived from 7 biological replicates and 14 to 21 technical replicates. Outliers were identified using the Nalimov test, statistical significance was tested one-way ANOVA with Tukey's range test for multiple comparisons and Bonferroni correction, establishing the threshold for significance at p<0.0071. Accordingly, data are marked with * (p<0.0071), ** (p<0.0014) or *** (p<0.00014). Control: untreated cells
as §1, with “Table 2” for “Table 1”

trained sensory panel = assay: sensory panel test of guaifenesin-induced bitterness perception (sip and spit, randomized comparison); format: in vivo, human; details: guaifenesin used in combination with eriodictyol; refers to Table 3
Method: To verify the effect of eriodictyol on guaifenesin-induced bitterness perception, an aqueous solution of 13 g/l guaifenesin (1) was tested against an aqueous solution containing 13 g/l guaifenesin and 20 mg/l eriodictyol (2) or 100 mg/l homoeriodictyol (3). The test was conducted as a randomized comparison test in a trained sensory panel (n=20 to 30) via a sip and spit procedure. The panelists tasted both solutions in a blinded fashion and rated bitterness on a scale of 0 to 100.

In the case of COc1cc([C@@H]2CC(=O)c3c(O)cc(O)cc3O2)ccc1O (stereo in doubt) [homoeriodictyol, (2S)-/(2R)-5,7-Dihydroxy-2-(4-hydroxy-3-methoxyphenyl)-4-chromanone], the “reduction in guaifenesin bitterness” value (guaifenesin bitterness) is given as “about 40%”, the “proton secretory activity (log2 transformed ratio of treated vs. untreated cells)” value (HGT-1 cells; 10 mM guaifenesin ± 3 μM homoeriodictyol, timepoint 0 min) is given as −0.2514 ± 0.0260 and the “proton secretory activity (log2 transformed ratio of treated vs. untreated cells)” value (HGT-1 cells; 10 mM guaifenesin ± 3 μM homoeriodictyol, timepoint 5 min) is given as −0.1923 ± 0.0304. For the same compound, the “proton secretory activity (log2 transformed ratio of treated vs. untreated cells)” value (HGT-1 cells; 10 mM guaifenesin ± 3 μM homoeriodictyol, timepoint 10 min) was −0.2547 ± 0.0320, the “proton secretory activity (log2 transformed ratio of treated vs. untreated cells)” value (HGT-1 cells; 10 mM guaifenesin ± 3 μM homoeriodictyol, timepoint 15 min) was −0.2538 ± 0.0317 and the “proton secretory activity (log2 transformed ratio of treated vs. untreated cells)” value (HGT-1 cells; 10 mM guaifenesin ± 3 μM homoeriodictyol, timepoint 20 min) was −0.2677 ± 0.0264. The “proton secretory activity (log2 transformed ratio of treated vs. untreated cells)” value (HGT-1 cells; 10 mM guaifenesin ± 3 μM homoeriodictyol, timepoint 25 min) was −0.2472 ± 0.0296, the “proton secretory activity (log2 transformed ratio of treated vs. untreated cells)” value (HGT-1 cells; 10 mM guaifenesin ± 3 μM homoeriodictyol, timepoint 30 min) was −0.2493 ± 0.0300 and the “proton secretory activity (log2 transformed ratio of treated vs. untreated cells)” value (HGT-1 cells; 10 mM guaifenesin ± 30 μM homoeriodictyol, timepoint 0 min) was −0.2845 ± 0.0235. For the same compound, the “proton secretory activity (log2 transformed ratio of treated vs. untreated cells)” value (HGT-1 cells; 10 mM guaifenesin ± 30 μM homoeriodictyol, timepoint 5 min) was −0.1702 ± 0.0265, the “proton secretory activity (log2 transformed ratio of treated vs. untreated cells)” value (HGT-1 cells; 10 mM guaifenesin ± 30 μM homoeriodictyol, timepoint 10 min) was −0.1272 ± 0.0263* and the “proton secretory activity (log2 transformed ratio of treated vs. untreated cells)” value (HGT-1 cells; 10 mM guaifenesin ± 30 μM homoeriodictyol, timepoint 15 min) was −0.1934 ± 0.0259. For the same compound, the “proton secretory activity (log2 transformed ratio of treated vs. untreated cells)” value (HGT-1 cells; 10 mM guaifenesin ± 30 μM homoeriodictyol, timepoint 20 min) was −0.2282 ± 0.0260, the “proton secretory activity (log2 transformed ratio of treated vs. untreated cells)” value (HGT-1 cells; 10 mM guaifenesin ± 30 μM homoeriodictyol, timepoint 25 min) was −0.1601 ± 0.0206 and the “proton secretory activity (log2 transformed ratio of treated vs. untreated cells)” value (HGT-1 cells; 10 mM guaifenesin ± 30 μM homoeriodictyol, timepoint 30 min) was −0.2187 ± 0.0244. For the same compound, the “inhibition of proton secretion compared with eriodictyol” value (HGT-1 cells; co-incubation of 10 mM guaifenesin with 30 μM homoeriodictyol) was “did not exhibit such a pronounced inhibition” and the “change in proton secretion compared to 10 mM guaifenesin alone” value (HGT-1 cells; co-incubation of 10 mM guaifenesin with 30 μM homoeriodictyol, only the time point at 10 min (p<0.0071)) was “significant decrease”.
With O=C1CC(c2ccc(O)c(O)c2)Oc2cc(O)cc(O)c21 [eriodictyol, (2S)-/(2R)-2-(3,4-dihydroxyphenyl)-5,7-dihydroxy-4-chromanone] the “reduction of bitterness of guaifenesin” value (trained sensory panel) was no less than 35%, the “proton secretory activity (log2 transformed ratio of treated vs. untreated cells)” value (HGT-1 cells; 10 mM guaifenesin + 3 μM eriodictyol, timepoint 0 min) was −0.3389 ± 0.0274 and the “proton secretory activity (log2 transformed ratio of treated vs. untreated cells)” value (HGT-1 cells; 10 mM guaifenesin + 3 μM eriodictyol, timepoint 5 min) was −0.3351 ± 0.0246. The “proton secretory activity (log2 transformed ratio of treated vs. untreated cells)” value (HGT-1 cells; 10 mM guaifenesin + 3 μM eriodictyol, timepoint 10 min) was −0.2874 ± 0.0241, the “proton secretory activity (log2 transformed ratio of treated vs. untreated cells)” value (HGT-1 cells; 10 mM guaifenesin + 3 μM eriodictyol, timepoint 15 min) was −0.2595 ± 0.0264 and the “proton secretory activity (log2 transformed ratio of treated vs. untreated cells)” value (HGT-1 cells; 10 mM guaifenesin + 3 μM eriodictyol, timepoint 20 min) was −0.2622 ± 0.0286. The “proton secretory activity (log2 transformed ratio of treated vs. untreated cells)” value (HGT-1 cells; 10 mM guaifenesin + 3 μM eriodictyol, timepoint 25 min) was −0.3259 ± 0.0279, the “proton secretory activity (log2 transformed ratio of treated vs. untreated cells)” value (HGT-1 cells; 10 mM guaifenesin + 3 μM eriodictyol, timepoint 30 min) was −0.3237 ± 0.0296 and the “proton secretory activity (log2 transformed ratio of treated vs. untreated cells)” value (HGT-1 cells; 10 mM guaifenesin + 30 μM eriodictyol, timepoint 0 min) was −0.2324 ± 0.0297. The “proton secretory activity (log2 transformed ratio of treated vs. untreated cells)” value (HGT-1 cells; 10 mM guaifenesin + 30 μM eriodictyol, timepoint 5 min) was −0.2396 ± 0.0252, the “proton secretory activity (log2 transformed ratio of treated vs. untreated cells)” value (HGT-1 cells; 10 mM guaifenesin + 30 μM eriodictyol, timepoint 10 min) was −0.1630 ± 0.0308*** and the “proton secretory activity (log2 transformed ratio of treated vs. untreated cells)” value (HGT-1 cells; 10 mM guaifenesin + 30 μM eriodictyol, timepoint 15 min) was −0.1472 ± 0.0302**. For the same compound, the “proton secretory activity (log2 transformed ratio of treated vs. untreated cells)” value (HGT-1 cells; 10 mM guaifenesin + 30 μM eriodictyol, timepoint 20 min) was −0.1496 ± 0.0269**, the “proton secretory activity (log2 transformed ratio of treated vs. untreated cells)” value (HGT-1 cells; 10 mM guaifenesin + 30 μM eriodictyol, timepoint 25 min) was −0.1478 ± 0.0283*** and the “proton secretory activity (log2 transformed ratio of treated vs. untreated cells)” value (HGT-1 cells; 10 mM guaifenesin + 30 μM eriodictyol, timepoint 30 min) was −0.1886 ± 0.0272*. The “change in proton secretory activity of HGT-1 cells compared to 10 mM guaifenesin alone” value (HGT-1 cells; co-incubation of 10 mM guaifenesin with 30 μM eriodictyol, from 10 min onwards) was “significant decrease”.
In the case of COc1ccccc1OCC(O)CO (centres unmarked) [guaifenesin, 3-(2-methoxyphenoxy-) 1,2-propanediol], the “proton secretory activity (log2 transformed ratio of treated vs. untreated cells)” value (HGT-1 cells; 10 mM guaifenesin alone, Table 1, timepoint 0 min) is reported as −0.3130 ± 0.0306, the “proton secretory activity (log2 transformed ratio of treated vs. untreated cells)” value (HGT-1 cells; 10 mM guaifenesin alone, Table 1, timepoint 5 min) is reported as −0.2720 ± 0.0225 and the “proton secretory activity (log2 transformed ratio of treated vs. untreated cells)” value (HGT-1 cells; 10 mM guaifenesin alone, Table 1, timepoint 10 min) is reported as −0.3283 ± 0.0253. For the same compound, the “proton secretory activity (log2 transformed ratio of treated vs. untreated cells)” value (HGT-1 cells; 10 mM guaifenesin alone, Table 1, timepoint 15 min) was −0.2945 ± 0.0277, the “proton secretory activity (log2 transformed ratio of treated vs. untreated cells)” value (HGT-1 cells; 10 mM guaifenesin alone, Table 1, timepoint 20 min) was −0.2885 ± 0.0266 and the “proton secretory activity (log2 transformed ratio of treated vs. untreated cells)” value (HGT-1 cells; 10 mM guaifenesin alone, Table 1, timepoint 25 min) was −0.3135 ± 0.0260. For the same compound, the “proton secretory activity (log2 transformed ratio of treated vs. untreated cells)” value (HGT-1 cells; 10 mM guaifenesin alone, Table 1, timepoint 30 min) was −0.3241 ± 0.0280, the “proton secretory activity (log2 transformed ratio of treated vs. untreated cells)” value (HGT-1 cells; 10 mM guaifenesin alone, Table 2, timepoint 0 min) was −0.2712 ± 0.0190 and the “proton secretory activity (log2 transformed ratio of treated vs. untreated cells)” value (HGT-1 cells; 10 mM guaifenesin alone, Table 2, timepoint 5 min) was −0.2170 ± 0.0217. For the same compound, the “proton secretory activity (log2 transformed ratio of treated vs. untreated cells)” value (HGT-1 cells; 10 mM guaifenesin alone, Table 2, timepoint 10 min) was −0.2543 ± 0.0268, the “proton secretory activity (log2 transformed ratio of treated vs. untreated cells)” value (HGT-1 cells; 10 mM guaifenesin alone, Table 2, timepoint 15 min) was −0.2518 ± 0.0274 and the “proton secretory activity (log2 transformed ratio of treated vs. untreated cells)” value (HGT-1 cells; 10 mM guaifenesin alone, Table 2, timepoint 20 min) was −0.2081 ± 0.0243. For the same compound, the “proton secretory activity (log2 transformed ratio of treated vs. untreated cells)” value (HGT-1 cells; 10 mM guaifenesin alone, Table 2, timepoint 25 min) was −0.2454 ± 0.0265 and the “proton secretory activity (log2 transformed ratio of treated vs. untreated cells)” value (HGT-1 cells; 10 mM guaifenesin alone, Table 2, timepoint 30 min) was −0.2730 ± 0.0241.

Reference: patent publication US20240382417A1, “Compositions Comprising Guaifenesin and Eriodictyol” (SYMRISE AG, priority 2018, published 2024)
